Where two headings read alike, the source gives them in different places.
Assays:
[1] = Scrub resistance of pigmented and complete PUDs (ISO 11998); format: physicochemical; conditions: for Wt. Loss: 200 wet-scrub cycles; for Loss of thickness after 200 wet-scrub cycles: calculated from weight loss
Description: (§1) Tests were first performed to determine the coalescing agent level for pigmented and complete PUD formulations in order to achieve the optimum film formation. Complete paints were mixed with 0.7 wt. %, 1.5 wt. %, 3.0 wt. % and 5.0 wt. % of coalescing agents and applied on tin plated steel at a wet film thickness of around 250 μm, where the weight percentage was based on the pure polyurethane dispersion resins. […] Based on the observations, 3 wt. % dosage of coalescing agent was selected. Complete PUD formulations with pigments, fillers and other additives were prepared as per Table 5, and used to test and determine the coalescing properties of the caprolactam-derived solvents and other known coalescing agents.
Scrub resistance was tested according the ISO 11998 “Paints and Varnishes—Determination of Wet-Scrub Resistance and Cleanability of Coatings” standard. In this testing method, the paint was applied on a test panel (Leneta sheet) using a film applicator at the specific gap clearance. After drying and conditioning for four weeks at room temperature the coated panel was weighed and subject to 200 wet-scrub cycles in a scrub resistance machine. The panel was then washed, dried and weighed to determine the loss from which the mean loss in film thickness was calculated. […] For instance, N-methyl caprolactam (NM CPL), N-ethyl caprolactam (NE CPL), and blends thereof in the ratios of 1:2 and 1:1, all had less loss of thickness (2.035 μm, 1.797 μm, 1.39 μm, and 1.64 μm, respectively) as compared to NMP (2.090 μm) and NBP (2.213 μm).

[2] = Gloss of pigmented and complete PUDs (ISO 2813); format: physicochemical
Description: as §1
(§2) Gloss measurements serve as an indicator of the paints surface quality. Gloss and color measurements were determined according to the ISO 2813 standard and the ISO 7724-2 standard (SCI-D65/10°), respectively.

[3] = Color of pigmented and complete PUDs (ISO 7724-2); format: physicochemical
Description: as §1, §2

[4] = Drying time (ASTM D1640 / ASTM D5895); format: physicochemical; conditions: 200 μm humid film; blends by ASTM D1640, single solvents by ASTM D5895
Description: as §1
The drying times for the pigmented PUD formulations were determined according to the ASTM D1640 “Standard Test Methods for Drying, Curing, or Film Formation of Organic Coatings” standard or the ASTM D5895 “Standard Test Methods for Evaluating Drying or Curing During Film Formation of Organic Coatings Using Mechanical Recorders” standard. Four stages of drying can be identified depending on the trace left by the needle on the paint surface: Stage 1—Set-to-Touch time, Stage 2—Tack-Free time, Stage 3—Dry-Hard time, and Stage IV—Dry trough time. However, Stage IV is often hard to detect.
In general, the paints were applied at a humid film thickness of 200 μm by means of a bar coater on a Leneta sheet and the needle rate was set at 60 cm/hr.
For the present examples, the drying times for the 2:1 A:B, 1:1 A:B, and 1:2 A:B solvents were determined using the ASTM D1640 standard, and the drying times for NM CPL, NE CPL, NMP, NBP, ester amide, and ester alcohol were determined using the ASTM D5895 standard.

[5] = MFFT of pigmented and complete PUDs; format: physicochemical; conditions: pigmented and complete PUD, 3 wt. % coalescing agent
Description: as §1, with “agents. The standard test for determining this temperature involves using a MFFT-BAR, as specified by standards ASTM D 2354 and ISO 2115. In general, the MFFT of a paint or coating is reduced temporarily by the use of coalescing agents.” for “agents.”

[6] = Freeze and thaw stability (ASTM D2243-95); format: physicochemical; conditions: for freeze-thaw stability: viscosity change (thickening of the paint): cycles of 16 hours at −20° C. and 8 hours at room temperature
Method: Water-based emulsions and dispersions are susceptible to irreversible coagulation by freezing. Freeze and thaw stability was tested according the ASTM D2243-95 standard.
For these examples, pigmented PUD paints were subject to freeze-thaw cycles of 16 hours at −20° C. and 8 hours at room temperature and subsequently subject to visible observations. The paints were then applied on a tin plated steel plate at a thickness of approximately 200 μm for observing film properties.
In addition, the freeze-thaw stability was best for caprolactam-derived coalescing agents (NM CPL) and the blends even after subject to five cycles (see FIG. 9). In particular, the paints were visually observed after each cycle to see if there was any viscosity change, i.e., thickening of the paint. Then, the dry films of the coatings were observed visually.

[7] = Persoz hardness of pigmented and complete PUDs; format: physicochemical; conditions: pigmented
Description: as §1
Persoz hardness measurements were performed on pigmented paints that were applied on tin plated steel using a doctor blade applicator at a dry film thickness (DFT) around 50 μm according to the ISO 1522 standard. […] For instance, the 28 day hardness for N-ethyl caprolactam (NE CPL) was approximately 104.6±0.5, while the 28 day hardness for NMP was approximately 108.8±2.4, and the 28 day hardness for ester alcohol and N-methyl caprolactam (NM CPL) were approximately 124.8±1 and 126.0±1, respectively, while the 28 day hardness for NBP was approximately 135.8±5.

Open time (ASTM D7488) = format: physicochemical; conditions: ASTM D7488, 23±2° C., 50±5% RH, wet film 200 μm
Description: as §1
Open times were determined according to the ASTM D7488 “Test Method for Open Time of Latex” standard and the tests were performed under controlled temperature and humidity (23±2° C. and 50±5% RH). In general, the paints were applied at a wet film thickness of 200 μm on contrasting sealed charts by means of a doctor blade applicator, and “X” marks are made immediately with the wide curved end of a wooden paint brush. After a determined time internal, the brush was dipped into the paint to be tested and brushing of the X-marks was started in perpendicular direction to the initial drawdown using 10 strokes back and forth to work the paint under test into the drawdown area. This procedure is repeated after several time intervals. After their complete drying (1 week), the painted panels are observed by two different observers and the time for which the “X” marks to become visible is considered as the open time.

[8] = Solubility of DMPA in solvents
Method: Solubility was tested between the various solvents to determine their applicability in the PUD manufacturing processes. Solubility is the amount of a substance (coalescing agent) that dissolves in a unit volume of a liquid substance (solvent) to form a saturated solution under specified conditions of temperature and pressure. For the examples, amounts of […] (DMPA) were dissolved in each solvent.

[9] = Minimum film forming temperature, non-pigmented resin + coalescing agent; format: physicochemical; conditions: resin with 5 wt. % coalescing agent, film thickness 350 μm
[10] = Viscosity and storage stability of pigmented PUD formulations; format: physicochemical; conditions: 1 month at 50° C., FIG. 5
Description: as §1
Dispersions and emulsions tend to aggregate polyurethane particles during storage. One way to determine the stability of a polyurethane dispersion is to measure viscosity of the polyurethane dispersion over time. Viscosity is a measure of a solvent's resistance to gradual deformation by shear stress or tensile stress. […] The storage stability of the dispersions was evaluated based on variations between viscosity measurements performed on paints shortly after their preparation and after their storage for either one month at room temperature or one month at 50° C.

| MFFT [9] [°C] | Solubility [8] | Compound | Wt. Loss [1] [g/m^2] | Loss of thickness after 200 wet-scrub cycles [1] | Gloss 20° [2] | Gloss 60° [2] | Gloss 85° [2] | Color (Black background) L* [3] | Color (Black background) a* [3] | Color (Black background) b* [3] | Color (White background) L* [3] | Color (White background) a* [3] | Color (White background) b* [3] | Drying Time [4] [min] | MFFT [5] [°C] | Persoz Hardness ([7]; 1 Day, in s) | Persoz Hardness ([7]; 7 Days, in s) | Persoz Hardness ([7]; 14 Days, in s) | Persoz Hardness ([7]; 21 Days, in s) | Open Time (Open time (ASTM D7488)) [min] | also measured |
| --- | --- | --- | --- | --- | --- | --- | --- | --- | --- | --- | --- | --- | --- | --- | --- | --- | --- | --- | --- | --- | --- |
|  |  | 2, 2, 4-trimethyl-1,3-pentanediol monoisobutyrate [Ester alcohol, reference compound] | 7.747 | 4.439 µm | 1.3 ± 0 | 3.0 ± 0 | 19.6 ± 0.3 | 94.93 | −0.87 | 2.30 | 95.6 | −0.51 | 3.16 | 13.6 | −0.4 | 98.2 ± 3 | 118.0 ± 1 | 120.0 ± 2 | 122.0 ± 2 | 10 | freeze-thaw stability: viscosity change (thickening of the paint) [6]: thickening of the paint samples after two cycles; Persoz Hardness ([7]; 28 Days): approximately 124.8±1; Persoz Hardness ([7]; 28 Days, in s): 124.8 ± 1 |
|  |  | COC(=O)CCCCC(=O)N(C)C [Ester amide, Hexanoic acid, 6-(dimethylamino)-6-oxo, methyl ester] | 7.920 | 4.040 µm | 1.3 ± 0 | 3.3 ± 0 | 24.2 ± 0.2 | 93.84 | −1.05 | 2.03 | 94.98 | −0.51 | 3.29 | 13.3 | −0.6 |  |  |  |  | 12 | Solubility ([8]; DMPA dissolved in each solvent): 10.0 g/100 g of Solvent |
|  | 54.0 g/100 g of Solvent | CN1CCCC1=O [NMP, N-methyl pyrrolidone, reference compound] | 3.372 | 2.090 µm | 1.3 ± 0 | 3.6 ± 0 | 30.7 ± 0.6 | 94.55 | −0.88 | 2.20 | 95.14 | −0.52 | 3.02 | 19.8 | −1.4 | 94.2 ± 0.4 | 101.0 ± 2.4 | 100.6 ± 1.7 | 107.6 ± 1.3 | 12 |  |
| −1.3±0.3 | 10.0 g/100 g of Solvent | CCCCN1CCCCCC1=O [N—BuCPL, N-butyl caprolactam] |  |  |  |  |  |  |  |  |  |  |  |  |  |  |  |  |  |  |  |
| −1.4±0.3 | 20.0 g/100 g of Solvent | CCN1CCCCCC1=O [N—EtCPL, N-ethyl caprolactam] | 3.767 | 1.797 µm | 1.3 ± 0 | 3.0 ± 0 | 24.5 ± 0.5 | 94.45 | −0.92 | 2.46 | 95.04 | −0.61 | 3.24 | 17.4 | −2.4 | 101.0 ± 1.0 | 102.0 ± 0.7 | 101.4 ± 2.6 | 104.0 ± 2.8 | 16 | storage stability (viscosity buildup) [10]: low viscosity buildup; effect on color (yellowing) ([3]; pigmented PUD): no yellowing; freeze-thaw stability and film properties (comparison) ([6]; FIGS. 8 and 9): better freeze-thaw stability and film properties than NBP and ester alcohol |
|  | 20.0 g/100 g of Solvent | N-butyl pyrrolidone [NBP, reference compound] |  |  |  |  |  |  |  |  |  |  |  |  |  |  |  |  |  |  |  |

| Compound | MFFT [9] [°C] | Solubility [8] | Wt. Loss [1] [g/m^2] | Loss of thickness after 200 wet-scrub cycles [1] | Gloss 20° [2] | Gloss 60° [2] | Gloss 85° [2] | Color (Black background) L* [3] | Color (Black background) a* [3] | Color (Black background) b* [3] | Color (White background) L* [3] | Color (White background) a* [3] | Color (White background) b* [3] | Drying Time [4] [min] | MFFT [5] [°C] | Persoz Hardness ([7]; 1 Day, in s) | Persoz Hardness ([7]; 7 Days, in s) | Persoz Hardness ([7]; 14 Days, in s) | Persoz Hardness ([7]; 21 Days, in s) | Open Time (Open time (ASTM D7488)) [min] | also measured |
| --- | --- | --- | --- | --- | --- | --- | --- | --- | --- | --- | --- | --- | --- | --- | --- | --- | --- | --- | --- | --- | --- |
| CCCCN1CCCC1=O [NBP, N-butyl pyrrolidone, reference compound] | −0.4±0.2 |  | 4.142 | 2.213 µm | 1.3 ± 0 | 2.8 ± 0 | 19.9 ± 0.2 | 94.00 | −1.04 | 2.20 | 95.01 | −0.56 | 3.32 | 11.8 | −0.7 | 64.4 ± 3 | 127.0 ± 2 | 133.2 ± 5 | 136.6 ± 6 | 12 | freeze-thaw stability: viscosity change (thickening of the paint) [6]: thickening of the paint samples after two cycles |

— patent US12024584B2, “Methods and compositions for polyurethane dispersions using caprolactam-derived solvents” (AdvanSix Resins & Chemicals LLC, priority 2017, dated 2024)
